The subject of assay [1] is control sera (pooled serum of ten healthy LUMC hospital workers; commercial negative donor pooled serum from the Dutch bloodbank). Format: binding, human. Also on record: Binding of Control serum LUMC to linear peptides / Binding of Control serum Blood-bank to linear peptides / Binding of Control serum LUMC to looped peptides / Binding of Control Serum Blood-Bank to Looped peptides / Binding of Control serum LUMC to linear peptides of the protein M of SARS-CoV Urbani / Binding of Control serum Blood-bank to linear peptides of the protein M of SARS-CoV Urbani / Binding of Control serum LUMC to looped peptides of the protein M of SARS-CoV Urbani / Binding of Control Serum Blood-Bank to Looped peptides of the protein M of SARS-CoV Urbani: unit not given here.

In assay [2] the test system is rabbit serum obtained by immunizing a rabbit with the SARS-CoV strain Frankfurt 1. Type of assay: binding. Also on record: Binding of a rabbit serum to linear peptides / Binding of a rabbit serum to looped peptides / Rabbit serum linear peptides / Rabbit serum looped peptides / Binding of a rabbit serum to linear peptides of protein N of SARS-CoV Urbani (Rabbit serum linear peptides) / Binding of a rabbit serum to looped/cyclic peptides of protein N of SARS-CoV Urbani (Rabbit serum looped peptides): unit not given here.

The test system of assay [3] is antibodies in sera from SARS patients (sera 1a, 1b, 2, 6, 37, 62, London, SARS-yellow, SARS-green). Type of assay: binding, human. The arrangement: Binding of serum 6 to linear peptides of protein X1 of SARS-CoV Urbani / Binding of serum 37 to linear peptides of protein X1 of SARS-CoV Urbani / Binding of serum 6 to looped/cyclic peptide (PEPSCAN-ELISA) / Binding of serum 37 to looped/cyclic peptide (PEPSCAN-ELISA) / Binding of serum 37 to looped/cyclic peptides of protein X1 of SARS-CoV Urbani / Binding of serum 6 to linear peptides of protein X2 / Binding of serum 37 to linear peptides of protein X2 / Binding of serum 37 to looped/cyclic peptides of protein X2 of SARS-CoV Urbani / Binding of serum 6 to linear peptides of protein M of SARS-CoV Urbani / Binding of serum 37 to linear peptides of protein M of SARS-CoV Urbani / Binding of serum 6 to looped/cyclic peptides of protein M of SARS-CoV Urbani / Binding of serum 37 to looped/cyclic peptides of protein M of SARS-CoV Urbani / Binding of serum 6 to linear peptides of protein X3 of SARS-CoV Urbani / Binding of serum 37 to linear peptides of protein X3 of SARS-CoV Urbani / Binding of serum 37 to looped/cyclic peptides of protein X3 of SARS-CoV Urbani / Binding of serum 6 to linear peptides of protein X4 of SARS-CoV Urbani / Binding of serum 37 to linear peptides of protein X4 of SARS-CoV Urbani / Binding of serum 37 to looped/cyclic peptides of protein X4 of SARS-CoV Urbani / Binding of serum 6 to linear peptides of protein X5 of SARS-CoV Urbani / Binding of serum 37 to linear peptides of protein X5 of SARS-CoV Urbani / Binding of serum 37 to looped/cyclic peptides of protein X5 of SARS-CoV Urbani / Binding of serum 6 to linear peptides of protein N of SARS-CoV Urbani / Binding of serum 37 to linear peptides of protein N of SARS-CoV Urbani / Binding of serum 6 to linear peptide (PEPSCAN-ELISA) / Binding of serum 1a to looped/cyclic peptides of protein N of SARS-CoV Urbani / Binding of serum 1b to looped/cyclic peptides of protein N of SARS-CoV Urbani / Binding of serum 2 to looped/cyclic peptides of protein N of SARS-CoV Urbani / Binding of serum 6 to looped/cyclic peptides of protein N of SARS-CoV Urbani / Binding of serum 37 to looped/cyclic peptides of protein N of SARS-CoV Urbani / Binding of serum 62 to looped/cyclic peptides of protein N of SARS-CoV Urbani / Binding of serum London to looped/cyclic peptides of protein N of SARS-CoV Urbani / Binding of serum SARS-green to looped/cyclic peptides of protein N of SARS-CoV Urbani: unit not given here.

This note sets out measurements from US20070128217A1 (priority 2003, published 2007).

Consider NTYSTAWLCALGKVL, for which, in assay [1], the “Binding of Control Serum Blood-Bank to Looped peptides” value was determined as 0.4, the “Binding of Control serum Blood-bank to linear peptides” value is given as 0.8, the “Binding of Control serum LUMC to linear peptides” value is 0.4 and the “Binding of Control serum LUMC to looped peptides” value worked out at 0.5. In addition, in assay [2], the “Rabbit serum linear peptides” value is 0.6 and the “Rabbit serum looped peptides” value was 0.5. Also, in assay [3], the “Binding of serum 1a to linear peptides of protein X5 of SARS-CoV Urbani” value came out at 0.7, the “Binding of serum 1a to looped/cyclic peptides of protein X5 of SARS-CoV Urbani” value came out at 0.4, the “Binding of serum 1b to linear peptides of protein X5 of SARS-CoV Urbani” value stood at 0.4 and the “Binding of serum 1b to looped/cyclic peptides of protein X5 of SARS-CoV Urbani” value was 0.3. Also, in assay [3], the “Binding of serum 2 to linear peptides of protein X5 of SARS-CoV Urbani” value stood at 0.5, the “Binding of serum 2 to looped/cyclic peptides of protein X5 of SARS-CoV Urbani” value turned out to be 0.5, the “Binding of serum 6 to linear peptides of protein X5 of SARS-CoV Urbani” value worked out at 0.6 and the “Binding of serum 6 to looped/cyclic peptides of protein X5 of SARS-CoV Urbani” value was determined as 1.1. Moreover, in assay [3], the “Binding of serum 37 to linear peptides of protein X5 of SARS-CoV Urbani” value is listed as 0.6, the “Binding of serum 37 to looped/cyclic peptides of protein X5 of SARS-CoV Urbani” value is reported as 0.5, the “Binding of serum 62 to linear peptides of protein X5 of SARS-CoV Urbani” value stood at 0.7 and the “Binding of serum 62 to looped/cyclic peptides of protein X5 of SARS-CoV Urbani” value is 0.6. Moreover, in assay [3], the “Binding of serum London to linear peptides of protein X5 of SARS-CoV Urbani” value turned out to be 0.6, the “Binding of serum London to looped/cyclic peptides of protein X5 of SARS-CoV Urbani” value is 2.3, the “Binding of serum SARS-green to linear peptides of protein X5 of SARS-CoV Urbani” value came to 0.4 and the “Binding of serum SARS-green to looped/cyclic peptides of protein X5 of SARS-CoV Urbani” value was 0.3. Also, in assay [3], the “Binding of serum SARS-yellow to linear peptides of protein X5 of SARS-CoV Urbani” value is given as 0.3 and the “Binding of serum SARS-yellow to looped/cyclic peptides of protein X5 of SARS-CoV Urbani” value is on record as 0.6.
Take NVPLRGTIVTRPLME: in assay [1], the “Binding of Control Serum Blood-Bank to Looped peptides of the protein M of SARS-CoV Urbani” value was determined as 0.7, the “Binding of Control serum Blood-bank to linear peptides of the protein M of SARS-CoV Urbani” value is listed as 0.6, the “Binding of Control serum LUMC to linear peptides of the protein M of SARS-CoV Urbani” value is recorded as 0.4 and the “Binding of Control serum LUMC to looped peptides of the protein M of SARS-CoV Urbani” value came out at 0.9. Besides, in assay [2], the “Rabbit serum linear peptides” value was 0.3 and the “Rabbit serum looped peptides” value amounted to 0.5. In assay [3], the “Binding of serum 1a to linear peptides of protein M of SARS-CoV Urbani” value stood at 0.8, the “Binding of serum 1b to linear peptides of protein M of SARS-CoV Urbani” value was found to be 0.6, the “Binding of serum 2 to linear peptides of protein M of SARS-CoV Urbani” value came out at 0.4 and the “Binding of serum 6 to linear peptides of protein M of SARS-CoV Urbani” value turned out to be 0.3. Also, in assay [3], the “Binding of serum 37 to linear peptides of protein M of SARS-CoV Urbani” value is 0.7, the “Binding of serum 62 to linear peptides of protein M of SARS-CoV Urbani” value worked out at 0.8, the “Binding of serum London to linear peptides of protein M of SARS-CoV Urbani” value is on record as 0.3 and the “Binding of serum SARS-green to linear peptides of protein M of SARS-CoV Urbani” value is on record as 0.4. In assay [3], the “Binding of serum SARS-yellow to linear peptides of protein M of SARS-CoV Urbani” value is 0.1; the “Recognition of the peptide by sera of SARS-CoV infected individuals, and form (linear, looped/cyclic) in which it is recognized” value is listed as “recognized in looped/cyclic form”.
As for NVQIHTIDGSSGVAN, in assay [1], the “Binding of Control Serum Blood-Bank to Looped peptides” value is recorded as 0.4, the “Binding of Control serum Blood-bank to linear peptides” value was determined as 0.5, the “Binding of Control serum LUMC to linear peptides” value is on record as 0.5 and the “Binding of Control serum LUMC to looped peptides” value is reported as 0.4. In addition, in assay [2], the “Binding of a rabbit serum to linear peptides” value was determined as 0.1 and the “Binding of a rabbit serum to looped peptides” value stood at 0.3. In assay [3], the “Binding of serum 1a to linear peptides of protein X1 of SARS-CoV Urbani” value turned out to be 0.7, the “Binding of serum 1a to looped/cyclic peptides of protein X1 of SARS-CoV Urbani” value was 0.2, the “Binding of serum 1b to linear peptides of protein X1 of SARS-CoV Urbani” value was determined as 0.5 and the “Binding of serum 1b to looped/cyclic peptides of protein X1 of SARS-CoV Urbani” value was 0.2. In addition, in assay [3], the “Binding of serum 2 to linear peptides of protein X1 of SARS-CoV Urbani” value amounted to 0.5, the “Binding of serum 2 to looped/cyclic peptides of protein X1 of SARS-CoV Urbani” value is 0.1, the “Binding of serum 6 to linear peptides of protein X1 of SARS-CoV Urbani” value came out at 0.4 and the “Binding of serum 6 to looped/cyclic peptides of protein X1 of SARS-CoV Urbani” value is recorded as 0.1. In assay [3], the “Binding of serum 37 to linear peptides of protein X1 of SARS-CoV Urbani” value is given as 0.7, the “Binding of serum 37 to looped/cyclic peptides of protein X1 of SARS-CoV Urbani” value was determined as 0.3, the “Binding of serum 62 to linear peptides of protein X1 of SARS-CoV Urbani” value is recorded as 0.6 and the “Binding of serum 62 to looped/cyclic peptides of protein X1 of SARS-CoV Urbani” value came to 0.3. In addition, in assay [3], the “Binding of serum London to linear peptides of protein X1 of SARS-CoV Urbani” value was determined as 0.3, the “Binding of serum London to looped/cyclic peptides of protein X1 of SARS-CoV Urbani” value is given as 0.2, the “Binding of serum SARS-green to linear peptides of protein X1 of SARS-CoV Urbani” value worked out at 0.3 and the “Binding of serum SARS-green to looped/cyclic peptides of protein X1 of SARS-CoV Urbani” value was determined as 0.2. Besides, in assay [3], the “Binding of serum SARS-yellow to linear peptides of protein X1 of SARS-CoV Urbani” value was determined as 0.4 and the “Binding of serum SARS-yellow to looped/cyclic peptides of protein X1 of SARS-CoV Urbani” value amounted to 0.1.
In the case of PFHRWHTMVQTCTPN, in assay [1], the “Binding of Control Serum Blood-Bank to Looped peptides” value was found to be 0.5, the “Binding of Control serum Blood-bank to linear peptides” value came to 0.7, the “Binding of Control serum LUMC to linear peptides” value is 0.5 and the “Binding of Control serum LUMC to looped peptides” value is listed as 0.4. Further, in assay [2], the “Rabbit serum linear peptides” value is 0.5 and the “Rabbit serum looped peptides” value stood at 0.4. Besides, in assay [3], the “Binding of serum 1a to linear peptides of protein X5 of SARS-CoV Urbani” value was found to be 0.7, the “Binding of serum 1a to looped/cyclic peptides of protein X5 of SARS-CoV Urbani” value is recorded as 0.6, the “Binding of serum 1b to linear peptides of protein X5 of SARS-CoV Urbani” value amounted to 0.7 and the “Binding of serum 1b to looped/cyclic peptides of protein X5 of SARS-CoV Urbani” value stood at 0.5. In assay [3], the “Binding of serum 2 to linear peptides of protein X5 of SARS-CoV Urbani” value is recorded as 0.7, the “Binding of serum 2 to looped/cyclic peptides of protein X5 of SARS-CoV Urbani” value was determined as 0.6, the “Binding of serum 6 to linear peptides of protein X5 of SARS-CoV Urbani” value is given as 0.7 and the “Binding of serum 6 to looped/cyclic peptides of protein X5 of SARS-CoV Urbani” value was 0.3. Moreover, in assay [3], the “Binding of serum 37 to linear peptides of protein X5 of SARS-CoV Urbani” value worked out at 0.7, the “Binding of serum 37 to looped/cyclic peptides of protein X5 of SARS-CoV Urbani” value was determined as 0.5, the “Binding of serum 62 to linear peptides of protein X5 of SARS-CoV Urbani” value is listed as 0.7 and the “Binding of serum 62 to looped/cyclic peptides of protein X5 of SARS-CoV Urbani” value is 0.3. Moreover, in assay [3], the “Binding of serum London to linear peptides of protein X5 of SARS-CoV Urbani” value was 0.7, the “Binding of serum London to looped/cyclic peptides of protein X5 of SARS-CoV Urbani” value stood at 0.2, the “Binding of serum SARS-green to linear peptides of protein X5 of SARS-CoV Urbani” value was determined as 0.5 and the “Binding of serum SARS-green to looped/cyclic peptides of protein X5 of SARS-CoV Urbani” value is on record as 0.3. Also, in assay [3], the “Binding of serum SARS-yellow to linear peptides of protein X5 of SARS-CoV Urbani” value came out at 0.4 and the “Binding of serum SARS-yellow to looped/cyclic peptides of protein X5 of SARS-CoV Urbani” value was determined as 0.3.
